Measurements published in US4455419A, “2'-Modified kanamycins and production thereof” (Zaidan Hojin Biseibutsu Kagaku Kenkyu Kai, priority 1981, dated 1984).
Converted amounts (≈) assume the structure as drawn. Read-outs that look alike come from different tables or passages of the source.

Columns and labels:
Test in all cases: Minimum inhibitory concentration, standard serial dilution method
Type in all cases: cell-based
[1] = system: Salmonela typhimlium LT-2; details: 24 h, read-out: Minimum Inhibitory Concentrations
Excerpt: (§1) For comparison purpose, the minimum inhibitory concentrations (mcg/ml) of the parent compound, kanamycin A are also shown in Table II.

[2] = system: Pseudomonas aeruginosa E-2 IAM-1007; details: read-out: Minimum Inhibitory Concentrations
Excerpt: as §1

[3] = system: Staphylococcus aureus Rosenbach FDA 209-OJC-1; details: read-out: Minimum Inhibitory Concentrations
Excerpt: as §1

[4] = system: Staphylococcus epidermidis 109; details: read-out: Minimum Inhibitory Concentrations
Excerpt: as §1

Escherichia coli No. 29 = details: read-out: Minimum Inhibitory Concentrations
Excerpt: as §1

[5] = system: Serratia marcescens No. 1; details: read-out: Minimum Inhibitory Concentrations
Excerpt: as §1

Providencia morgani Kono = details: read-out: Minimum Inhibitory Concentrations
Excerpt: as §1

[6] = system: Escherichia coli JR66/W677 (A-20683); details: read-out: Minimum Inhibitory Concentrations
Excerpt: as §1

[7] = system: Klebsiella pneumoniae PCI-602; details: read-out: Minimum Inhibitory Concentrations
Excerpt: as §1

[8] = system: Pseudomonas aeruginosa IAM-1007; details: read-out: Minimum Inhibitory Concentrations
Excerpt: as §1

[9] = Escherichia coli No. 29, nutrient agar, 37° C., 24 hours
[10] = Escherichia coli JR66/W677 (A-20683), nutrient agar, 37° C., 24 hours
[11] = Pseudomonas aeruginosa, IAM1007, 24 h
[12] = Staphylococcus aureus, FDA209, 24 h
[13] = Staphylococcus epidermidis, 109, 24 h
[14] = Serratia marcescens, NO.1, 24 h
[15] = Klebsiella pneumoniae, PCI602, 24 h

SMILES | MIC [1] [µg/mL] | MIC ([2]; IAM1007, Pseudomonas aeruginosa E-2 IAM-1007, nutrient agar, 37° C., 24 hours) [µg/mL] | MIC ([3]; FDA209, Staphylococcus aureus Rosenbach FDA 209-OJC-1, nutrient agar, 37° C., 24 hours) [µg/mL] | MIC ([4]; Staphylococcus epidermidis 109, nutrient agar, 37° C., 24 hours) [µg/mL] | MIC (Escherichia coli No. 29; [9]) [µg/mL] | MIC ([5]; Serratia marcescens No. 1, nutrient agar, 37° C., 24 hours) [µg/mL] | MIC (Providencia morgani Kono; Providencia morgani Kono, nutrient agar, 37° C., 24 hours) [µg/mL] | MIC [6, 10] [µg/mL] | MIC ([7]; PCI602, Klebsiella pneumoniae PCI-602, nutrient agar, 37° C., 24 hours) [µg/mL] | MIC ([8]; IAM1007, Pseudomonas aeruginosa IAM-1007, nutrient agar, 37° C., 24 hours) [µg/mL] | MIC [2, 11] [µg/mL] | MIC [3, 12] [µg/mL] | MIC [4, 13] [µg/mL] | MIC [5, 14] [µg/mL] | MIC (Providencia morgani Kono; Providencia, 24 h) [µg/mL] | MIC [7, 15] [µg/mL] | MIC [8, 11] [µg/mL] | MIC (Escherichia coli No. 29; Escherichia coli, NO.29, 24 h) [µg/mL] | MIC ([6]; Escherichia coli, 24 h) [µg/mL]
NC[C@H]1O[C@H](O[C@H]2[C@H](O)[C@@H](O[C@H]3O[C@H](CO)[C@@H](O)[C@H](N)[C@H]3O)[C@H](N)C[C@@H]2N)C[C@@H](O)[C@@H]1O [2'-Deoxykanamycin A, 2'-deoxykanamycin A] | 0.78 (≈ 1.66 µM) | 6.25 (≈ 13.3 µM) | 0.05 (≈ 0.107 µM) | 0.2 (≈ 0.427 µM) | 0.39 (≈ 0.832 µM) | 0.78 (≈ 1.66 µM) | 0.78 (≈ 1.66 µM) | 50 (≈ 107 µM) | 0.78 (≈ 1.66 µM) | 1.56 (≈ 3.33 µM) |  |  |  |  |  |  |  |  | 
NC[C@H]1O[C@H](O[C@H]2[C@H](O)[C@@H](O[C@H]3O[C@H](CO)[C@@H](O)[C@H](N)[C@H]3O)[C@H](N)C[C@@H]2N)[C@H](O)[C@@H](O)[C@@H]1O [Kanamycin A, kanamycin A, reference compound] | 1.56 (≈ 3.22 µM) |  |  |  | 0.78 (≈ 1.61 µM) |  |  | > 100 |  |  | 50 (≈ 103 µM) | 0.1 (≈ 0.206 µM) | 3.13 (≈ 6.46 µM) | 3.13 (≈ 6.46 µM) | 3.13 (≈ 6.46 µM) | 1.56 (≈ 3.22 µM) | 12.5 (≈ 25.8 µM) |  | 
NC[C@H]1O[C@H](O[C@H]2[C@H](O)[C@@H](O[C@H]3O[C@H](CO)[C@@H](O)[C@H](N)[C@H]3O)[C@H](N)C[C@@H]2N)[C@@H](O)[C@@H](O)[C@@H]1O [2'-Epikanamycin A, 2'-epikanamycin A] | 6.25 (≈ 12.9 µM) |  |  |  |  |  |  | > 100 |  |  | > 100 | 0.39 (≈ 0.805 µM) | 25 (≈ 51.6 µM) | 12.5 (≈ 25.8 µM) | 6.25 (≈ 12.9 µM) | 6.25 (≈ 12.9 µM) | 50 (≈ 103 µM) | 6.25 (≈ 12.9 µM) | 
NC[C@H]1O[C@H](O[C@H]2[C@H](O)[C@@H](O[C@H]3O[C@H](CO)[C@@H](O)[C@H](N)[C@H]3O)[C@H](N)C[C@@H]2N)[C@@H](N)[C@@H](O)[C@@H]1O [2'-Epikanamycin B, 2'-epikanamycin B] | 50 (≈ 103 µM) |  |  |  |  |  |  |  |  |  | > 100 | 1.56 (≈ 3.23 µM) | 50 (≈ 103 µM) | 100 (≈ 207 µM) | 50 (≈ 103 µM) | 50 (≈ 103 µM) | > 100 | 50 (≈ 103 µM) | > 100
